Molecules are shown by their SMILES. Like-named read-outs stand apart in the source and are kept apart here.

In general, Kd refers to the equilibrium constant for the complex coming apart.

For experiment [1], the target named is T1, human GR (Homo sapiens, UniProt P04150).
T1 construct: PC3 and DU145, two human prostate cancer models with endogenous GR expression; endogenous in cells; host or cells: DU145
T1 sequence (P04150 1-777): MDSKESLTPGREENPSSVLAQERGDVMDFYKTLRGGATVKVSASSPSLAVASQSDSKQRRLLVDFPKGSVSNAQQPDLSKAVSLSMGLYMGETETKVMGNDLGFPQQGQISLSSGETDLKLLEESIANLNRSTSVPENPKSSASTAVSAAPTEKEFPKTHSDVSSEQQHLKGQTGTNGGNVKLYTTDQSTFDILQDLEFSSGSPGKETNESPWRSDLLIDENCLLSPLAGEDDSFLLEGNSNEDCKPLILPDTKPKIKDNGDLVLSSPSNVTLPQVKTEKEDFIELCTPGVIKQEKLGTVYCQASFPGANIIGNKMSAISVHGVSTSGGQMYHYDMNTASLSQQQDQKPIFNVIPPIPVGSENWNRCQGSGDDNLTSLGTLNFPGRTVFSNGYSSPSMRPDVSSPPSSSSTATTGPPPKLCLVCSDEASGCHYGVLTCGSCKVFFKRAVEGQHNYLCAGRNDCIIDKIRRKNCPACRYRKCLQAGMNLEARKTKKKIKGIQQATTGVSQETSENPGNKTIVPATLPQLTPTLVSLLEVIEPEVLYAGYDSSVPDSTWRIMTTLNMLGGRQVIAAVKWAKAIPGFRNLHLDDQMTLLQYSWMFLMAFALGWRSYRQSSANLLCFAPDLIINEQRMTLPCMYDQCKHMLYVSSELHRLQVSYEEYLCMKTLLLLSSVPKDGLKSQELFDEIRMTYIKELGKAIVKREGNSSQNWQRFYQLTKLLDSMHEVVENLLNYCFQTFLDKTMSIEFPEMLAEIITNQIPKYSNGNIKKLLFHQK
Put plainly: Competition binding assay on cells, human GR. As for the experimental part: (§1) The KD for subfamily 3 group C nuclear hormone receptors was determined on cells by displacing ^3H-steroidal agonists for the respective receptor.
(§2) The cold ligands and ^3H-steroids were co-incubated on cells in PBS at room temperature for one hour. Following incubation, the cells were washed twice with ice cold PBS and the unbound activity was retained for analysis. The cells were lysed with 1 mL of 1 M NaOH and collected. Bound and unbound fractions were counted in a liquid scintillation counter and expressed as a percentage of the total activity added per equal relative number of cells. […] The specific binding component was plotted against the log of the competing ligand and curve fit using a non-linear regression algorithm with PRISM software.

The target in experiment [2] is T2, huPR (Homo sapiens, UniProt P06401).
T2 construct: DU145 (GR), LNCaP-AR (AR), MCF7 (PR, ER), GL261 (mouse GR), and 9L (rat GR); endogenous in cells; host or cells: MCF7
T2 sequence (P06401 1-933): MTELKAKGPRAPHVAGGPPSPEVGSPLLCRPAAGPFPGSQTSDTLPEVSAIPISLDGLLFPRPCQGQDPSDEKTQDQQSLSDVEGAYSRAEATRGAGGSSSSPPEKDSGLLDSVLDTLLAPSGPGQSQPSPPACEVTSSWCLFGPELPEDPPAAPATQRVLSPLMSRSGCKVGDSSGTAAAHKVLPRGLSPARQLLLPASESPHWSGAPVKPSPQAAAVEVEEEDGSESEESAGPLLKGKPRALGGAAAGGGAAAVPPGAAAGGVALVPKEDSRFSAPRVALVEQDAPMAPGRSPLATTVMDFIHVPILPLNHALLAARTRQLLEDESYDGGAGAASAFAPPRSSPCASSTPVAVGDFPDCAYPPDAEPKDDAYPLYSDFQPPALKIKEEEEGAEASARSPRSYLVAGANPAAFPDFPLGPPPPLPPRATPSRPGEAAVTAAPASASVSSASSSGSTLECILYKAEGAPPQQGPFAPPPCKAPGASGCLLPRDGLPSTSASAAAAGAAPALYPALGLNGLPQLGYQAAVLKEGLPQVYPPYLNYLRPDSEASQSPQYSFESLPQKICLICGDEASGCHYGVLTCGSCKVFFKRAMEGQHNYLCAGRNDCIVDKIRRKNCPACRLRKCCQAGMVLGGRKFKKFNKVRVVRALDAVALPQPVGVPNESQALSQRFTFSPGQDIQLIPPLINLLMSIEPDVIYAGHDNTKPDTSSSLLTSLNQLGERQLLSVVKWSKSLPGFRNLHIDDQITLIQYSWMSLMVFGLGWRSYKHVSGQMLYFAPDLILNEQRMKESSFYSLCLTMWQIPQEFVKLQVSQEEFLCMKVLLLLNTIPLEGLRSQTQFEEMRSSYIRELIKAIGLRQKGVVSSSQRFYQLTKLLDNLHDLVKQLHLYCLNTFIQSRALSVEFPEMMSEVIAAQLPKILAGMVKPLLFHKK
Briefly: Competition binding assay on cells, human PR. The following applies: MCF7 cells, displacing 3H-progesterone. As for the experimental part:
as §1, §2

For experiment [3], the target named is T3, huMR (Homo sapiens, UniProt P08235).
T3 sequence (P08235 1-984): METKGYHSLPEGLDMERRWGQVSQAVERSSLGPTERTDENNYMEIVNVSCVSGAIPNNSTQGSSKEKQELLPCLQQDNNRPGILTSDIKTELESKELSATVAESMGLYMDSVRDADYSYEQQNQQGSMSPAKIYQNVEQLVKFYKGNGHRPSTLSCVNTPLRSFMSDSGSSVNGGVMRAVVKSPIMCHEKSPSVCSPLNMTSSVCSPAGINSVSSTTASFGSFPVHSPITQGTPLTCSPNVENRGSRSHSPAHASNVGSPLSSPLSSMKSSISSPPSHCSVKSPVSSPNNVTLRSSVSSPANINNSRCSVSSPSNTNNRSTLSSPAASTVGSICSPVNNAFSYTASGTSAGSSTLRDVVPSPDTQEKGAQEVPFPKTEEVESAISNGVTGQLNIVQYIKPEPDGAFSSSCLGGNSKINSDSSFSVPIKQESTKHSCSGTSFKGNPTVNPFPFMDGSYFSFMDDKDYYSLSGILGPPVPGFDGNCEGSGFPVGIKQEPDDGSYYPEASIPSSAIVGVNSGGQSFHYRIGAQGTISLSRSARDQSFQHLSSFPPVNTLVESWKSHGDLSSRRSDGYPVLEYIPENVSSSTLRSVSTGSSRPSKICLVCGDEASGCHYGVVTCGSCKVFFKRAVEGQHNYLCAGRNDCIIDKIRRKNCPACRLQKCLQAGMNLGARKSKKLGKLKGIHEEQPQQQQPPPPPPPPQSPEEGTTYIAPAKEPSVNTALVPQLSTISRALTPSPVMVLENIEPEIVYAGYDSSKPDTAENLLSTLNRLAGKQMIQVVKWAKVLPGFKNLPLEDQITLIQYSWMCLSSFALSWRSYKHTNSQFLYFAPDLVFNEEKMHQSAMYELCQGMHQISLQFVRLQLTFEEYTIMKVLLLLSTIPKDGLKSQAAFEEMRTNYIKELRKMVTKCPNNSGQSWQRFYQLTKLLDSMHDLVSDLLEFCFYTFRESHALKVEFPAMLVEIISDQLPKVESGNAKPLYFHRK
Put plainly: Competition binding assay on cells, human MR. As to conditions: displacing 3H-aldosterone on cells. As for the experimental part: as §1, §2

Setting [4] is: DU145 cells, displacing 3H-dexamethasone, read-out: KD huGR.

Consider `C[C@]12C=CC(=O)C=C1CCC1C2[C@@H](O)C[C@@]2(C)C1CC[C@]2(O)C(=O)COCCCF` (stereo partly shown) [GR01], for which the Kd in experiment [1] (setting [4]) is 3.86 nM; in experiment [1] (Supplementary Table 1, read-out: KD for human GR) it was 3.8 nM; in experiment [2] it was 1060 nM; in experiment [3] it was 212 nM.
On to `C[C@]12C=CC(=O)C=C1CCC1C2[C@@H](O)C[C@@]2(C)C1CC[C@]2(O)C(=O)CNC(=O)c1ccc(F)cc1` (stereo partly shown) [GR02], for which the equilibrium dissociation constant (Kd) amounted to 15.9 nM in experiment [1] (setting [4]), 242 nM in experiment [2] and 4030 nM in experiment [3].
